The results in this text go back to patent US6649797B2, “Compounds and methods of use to treat infectious diseases” (The Picower Institute for Medical Research, priority 1996, dated 2003).

Series [1] deals with HIV-1ADA. The experiment in a line: Anti-HIV activity in primary human monocytes, day 9 (Table IX, FIG. 12C). Format: cell-based. As to conditions: Human immunodeficiency virus 1, Monocyte, 216 h.
Series [2] concerns monocyte and T lymphocyte cultures. Description: Cytotoxicity in monocyte and T lymphocyte cultures in vitro. The series is classed as cell-based.
Series [3] addresses T1, karyopherin α / purified recombinant MA (Human immunodeficiency virus type 1 group M subtype B, UniProt P04591).
T1 construct: or to purified recombinant MA
Description: Binding of karyopherin α to purified recombinant MA. Format: biochemical, HIV-1.

Another series has as its system HIV-1. Description: Reverse transcription of HIV-1 in infected cells. Format: cell-based.
For series [4], the target named is T2, HIV-1 pre-integration complex (MA / HIV-1 cDNA) (Human immunodeficiency virus type 1 group M subtype B, UniProt P05890+P05959).
T2 construct: MA is made from the Gag precursor and RT is made from the Gag-Pol precursor; endogenous in cells; host or cells: cytoplasmic extract of H9 cells infected with HIV-1RF
The experiment in a line: Association of MA with HIV-1 cDNA (anti-MA immunoprecipitation of viral DNA). The series is classed as biochemical. As to conditions: 10 μM (FIG. 13A). The procedure: Cytoplasmic extracts prepared from H9 cells infected with HIV-1RF were treated with 10 μM CNI-H0294 (lanes 2, 3, and 4) or left untreated (lane 1). Samples were divided into two aliquots. One aliquot was mixed with GST-karyopherin α immobilized on Sepharose beads and the HIV-1 DNA that bound was quantified by PCR. The second aliquot was immunoprecipitated (IP) with anti-MA serum (αMA, lane 3) or with pre-immune serum (NSS, lane 4) as control.
To test this hypothesis, cytoplasmic lysates of HIV-1-infected H9 cells were treated with CNI-H0294 and mixed with immobilized karyopherin α or subjected to immunoprecipitation with antibodies that bind MA.

The test system of series [5] is HIV-1ADA. Description: HIV-1ADA replication in purified monocytes, RT activity in supernatant (FIG. 2). The series is classed as cell-based. As to conditions: Human immunodeficiency virus 1, Monocyte, monocytes without M-CSF. The procedure:
FIGS. 2A-C. The effect of various concentrations of Compound No. 2 on RT activity in the supernatant of HIV-1-infected monocytes. FIG. 2A: Multiplicity of Infection (MOI) 1 ng p24/10^6 monocytes, culture d in presence of M-CSF. FIG. 2B: MOI 8 ng p24/10^6 monocytes, cultured in absence of M-CSF. FIG. 2C: MOI 0.8 ng p24/10^6 monocytes, cultured in absence of M-CSF.
The cultures were treated with none or between 10^−12 and 10^−6 M Compound No. 2 and, simultaneously with the beginning of treatment, the cells were exposed to the monocyte-tropic strain HIV-1ADA at about 0.01 TCID50/cell (1 ng p24/10^6 cells) for 2 hours. Samples were withdrawn at days 3, 6, 10, 14 and 17 after infection and assayed for reverse transcription activity.
FIGS. 2B and 2C show the effects of various concentrations of Compound No. 2 on the production of HIV-1 in monocyte cultures not supplemented with M-CSF. In these studies MOI, as determined by concentration of p24 antigen was; FIG. 2B (8 ng/10^6 cells) and FIG. 2C (0.8 ng/10^6 cells).
Primary human monocytes were obtained from peripheral blood by Ficoll-Hypaque centrifugation and adherence to plastic as described previously. Gartner S. P., et al., 1986, Science 233:215. […]
Virus stock and infection. […] The concentration of HIV-1 was determined by immunoassay of viral p24, concentration; using a conversion factor of 1 ng/200 HIV-1 particles. […]

Molecules are shown by their SMILES. Bounds are passed on as bounds.

Usually IC50 stands for the point on the concentration scale where inhibition reaches its midpoint. Read a high IC50 as weaker potency in that assay. Take `CC(=O)c1cc(Nc2cc(C)[n+](C)c(N)n2)cc(C(C)=O)c1` [CNI-0294, 2-Amino-4-(3,5-diacetylphenyl)amino-1,6-dimethylpyrimidinium chloride]: the midpoint of inhibition in the series on HIV-1ADA [1], the IC50, lay at 50 nM. This compound also registered a 50% toxic dose in series [2] of over 1 mM. In series [3], the “inhibition of binding of karyopherin α to purified recombinant MA” value is reported as “did not inhibit”. In the series on HIV-1, the “inhibition of reverse transcription of HIV-1 in infected cells” value is reported as “did not significantly inhibit”. Moreover, the “immunoprecipitation of viral DNA with anti-MA serum” value in series [4] is recorded as “did not prevent immunoprecipitation of viral DNA with anti-MA serum”.
`CC(=O)c1cc(Nc2cc(C)[n+](C)c(N)n2)cc(C(C)=O)c1.[I-]` [Compound No. 2, 2-amino-4-(3,5-diacetylphenyl)amino-1,6-dimethylpyrimidinium iodide]: the IC50 in the series with HIV-1ADA [5] (MOI 0.8 ng p24/10^6 cells (FIG. 2C)) is under 1 nM; with HIV-1ADA [5] (MOI 8 ng p24/10^6 cells (FIG. 2B)), about 10 nM.
